From BindingDB's records for doi:10.1016/j.chembiol.2007.10.017 (University of California Irvine, 2007) come the findings set out here.

The assay has as its target T1, Monoglyceride lipase (Rattus norvegicus, UniProt Q8R431).
T1 sequence (Q8R431 whole entry): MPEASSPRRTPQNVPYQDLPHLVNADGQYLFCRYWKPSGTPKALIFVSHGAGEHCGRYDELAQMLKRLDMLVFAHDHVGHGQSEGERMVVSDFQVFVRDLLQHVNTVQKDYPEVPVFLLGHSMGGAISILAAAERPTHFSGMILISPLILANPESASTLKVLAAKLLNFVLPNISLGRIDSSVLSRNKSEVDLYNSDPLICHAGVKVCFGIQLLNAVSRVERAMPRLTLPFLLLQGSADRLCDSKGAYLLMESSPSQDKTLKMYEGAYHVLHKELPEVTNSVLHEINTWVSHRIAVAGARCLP
The experiment in a line: Inhibition Assay. To be noted: pH 8. From the text:
The measurement of the ability of URB602 compound to inhibit MGL activity.

Usually IC50 stands for the concentration at which inhibition is half-maximal. A high value points to lower potency. For `CN(C(=O)OC1CCCCC1)c1cccc(-c2ccccc2)c1` [URB602, 3o], the half-inhibitory concentration (IC50) is greater than 300 µM. The figure for `O=C(Nc1cccc(-c2ccccc2)c1)NC1CCCCC1` [URB602, 4a] is 115 µM; for `O=C(Nc1cccc(-c2ccccc2)c1)SC1CCCCC1` [URB602, 6] it is greater than 300 µM. In turn, `O=C(Nc1cccc(-c2ccccc2)c1)OC(CO)CO` [URB602, 3n] came in with a half-maximal inhibitory concentration (IC50) greater than 300 µM. The same measure for `Cc1cccc(-c2cccc(NC(=O)OC3CCCCC3)c2)c1` [URB602, 3d]: greater than 300 µM.

In turn, `O=C(Nc1cccc(-c2ccccc2)c1)Oc1ccccc1` [URB602, 3l] yielded an IC50 of 243 µM. As to `O=C(Nc1cccc(-c2ccccc2)c1)OC1CCCCC1` [cyclohexyl biphenyl-3-ylcarbamate], inhibition was half-maximal at 223 µM (IC50).

The compound `O=C(NCCCCCc1ccccc1)OC1CCCCC1` [URB602, 3a] showed an IC50 greater than 300 µM.

`O=C(Nc1cccc(-c2cccc(C(F)(F)F)c2)c1)OC1CCCCC1` [URB602, 3e] gave an IC50 greater than 300 µM. With `CC1(C)OCC(OC(=O)Nc2cccc(-c3ccccc3)c2)CO1` [URB602, 3i], the IC50 is greater than 300 µM. The figure for `Cc1cccc(-c2cccc(NC(=O)OC(CO)CO)c2)c1` [URB602, 3m] is greater than 300 µM; for `O=C(Nc1ccccc1)OC1CCCCC1` [URB602, 3b] it is greater than 300 µM; for `O=C(Nc1cccc(-c2ccccc2)c1)OCCCCCc1ccccc1` [URB602, 3c] it is greater than 300 µM. The figure for `O=C(CC1CCCCC1)Nc1cccc(-c2ccccc2)c1` [URB602, 5] is greater than 300 µM; for `O=C(Nc1cccc(Oc2cccc(-c3ccccc3)c2)c1)OC1CCCCC1` [URB602, 3f] it is greater than 300 µM. In the case of `O=C(Nc1cccc(-c2ccccc2)c1)Oc1cccc(-c2ccccc2)c1` [URB602, 3j], the concentration for half-maximal inhibition (IC50) is greater than 300 µM. The same measure for `O=C(Nc1cccc(-c2ccccc2)c1)OCC(O)CO` (centres undefined) [URB602, 3h]: greater than 300 µM. The figure for `O=C(Nc1ccccc1-c1ccccc1)OC1CCCCC1` [URB602, 3g] is greater than 300 µM; for `O=C(Nc1ccc(-c2ccccc2)cc1)OC1CCCCC1` [URB602, 3k] it is greater than 300 µM.
